Results from patent US5942534A, “Photodynamic therapy for the treatment of osteoarthritis” (The General Hospital Corporation, priority 1997, dated 1999).
≈ marks a conversion by molar mass, not a printed value. Read-outs that look alike come from different tables or passages of the source.

How the values were obtained:
Assay type in all cases: cell-based, calf
chondrocytes [1] = assay: PDT-induced cytotoxicity (MTT cellular viability) in chondrocytes; conditions: more than 6 μg/ml Ce6; 5 or 10 J/cm^2 light, 658 nm; 72 hours after irradiation
Experimental: (§1) Chondrocytes were harvested by established collagenase digestion techniques. Articular cartilage was aseptically dissected from the femoral condyles and patellas of calf knee joints. […] The resulting cell suspensions were filtered through a cell sieve and washed twice with serum free TCM. The cells were resuspended in the same medium containing 5% heat inactivated fetal calf serum (BioWhittaker, Walkerville, Md.) (FCS-TCM) for seeding. Cell number was determined using a hemocytometer. […] Cells were plated at a density of 1.5×10^6 cells/ml into Falcon 96 well cell culture plates (Becton Dickinson Labware, Franklin Lakes, N.J.) for the cytotoxicity and cell proliferation experiments and into Falcon 6 well cell culture plates for the Photosensitizer uptake studies. Chondrocyte cultures were maintained at 37° C. in a 5% CO2 incubator for 1 week prior to initiation of the photosensitization studies.
(§2) Photofrin® (PF) and Benzoporphyrin Derivative (BPD-MA) were obtained from Quadralogic Technologies (Vancouver, Canada). Chlorin e6 (Ce6) and chloroaluminum phthalocyanine (CASP) were obtained from Ciba Geigy (Basel, Switzerland) and Porphyrin Products (Logan, Utah), respectively. All photosensitizers were added to the chondrocytes in the dark 3 hours prior to light exposure. Photosensitizer stock solutions were prepared immediately prior to each experiment; serial dilutions were prepared using FCS-TCM. All irradiations were done at the appropriate excitation wavelengths for each photosensitizer (BPD-MA 690 nm; Ce6 658 nm; CASP 680 nm; PF 624 nm) using light provided by an argon ion pumped dye laser (Coherent, Palo Alto, Calif.). Following light exposure, control and irradiated cells were maintained for 72 hours prior to the assessment of cellular viability and proliferation rates. Cells were examined daily by light microscopy for morphologic changes.
Screening studies of toxicity determined the range of doses and light response for each photosensitizer. These predetermined ranges were used for all of the studies described. […] Dosages greater than 50 μg/ml were considered not clinically relevant and a dose range extending to 50 μg/ml was chosen for these studies.
PDT-induced cytotoxicity was determined 72 hours after irradiation. […] MTT is metabolized via mitochondrial dehydrogenase enzymes to a formazan dye which can be measured spectrophotometrically. Cytotoxicity is expressed as the percentage of formazan produced in cells treated with visible light of different wavelengths and intensities relative to control cells (% control). The data are expressed as the mean ±S.E.M. from triplicate experiments.

chondrocytes [2] = assay: Cell proliferation ([^3 H]-thymidine incorporation) after PDT; conditions: Bos taurus, Chondrocyte
Experimental: as §1, §2
Cell proliferation was determined by [^3 H]-thymidine incorporation for all chondrocyte cultures 72 hours after drug and/or light exposure. The cell cultures were labeled with 5 μCi/ml [^3 H]-thymidine (35 Ci/mmol) (ICN, Irvine, Calif.) in FCS-TCM. After incubation for 20 hours, the radioactive medium was removed and the cells were rinsed three times with phosphate buffered saline (PBS) to remove unincorporated label. The cells were then lysed with buffer containing 150 mM Tris pH 8.0, 200 mM sodium chloride, 10% triton X-100 and 1% SDS. [^3 H]-thymidine incorporation was determined by liquid scintillation methods and the data are expressed as mean % control ±S.E.M. of samples irradiated without photosensitizer addition.
(§3) Articular chondrocytes were maintained in primary culture for five days after plating. Photosensitizer stocks were serially diluted in FCS-TCM and added to triplicate wells. The cells were incubated in the dark for 3 hours. The photosensitizer-containing FCS-TCM was then removed and the cells were rinsed with 1 ml PBS. To digest the extracellular matrix, the cells were then immersed in 1 ml of a solution of 1 mg/ml collagenase and 0.1 mg/ml hyaluronidase in serum-free TCM. The resulting single cell suspensions were transferred to microfuge tubes and were centrifuged at 3.3×g for 5 minutes. The collagenase solution was removed and the cells were rinsed three times with calcium/magnesium-free PBS. Aliquots were taken for cell counting prior to cell lysis with 1 ml 0.1 N NaOH containing 1% SDS. Cell counting was performed by hemocytometer and Coulter counter. Fluorescent spectra of the cell lysates were obtained using a Spex FluoroMax spectrofluorometer (ISA Instruments, Edison, N.J.) at the appropriate excitation/emission wavelengths for each of the four photosensitizers studied. Fluorescence spectra were corrected for background fluorescence. Relative uptake values were obtained by regression analysis of standard curves of known photosensitizer concentrations. […] Values of uptake at the IC50 are shown in fg/cell.

articular chondrocytes = assay: Photosensitizer uptake studies
Experimental: as §1
as §3, with “fg/cell. Average protein per cell was calculated from the cell counts and protein concentration determined by the Lowry protein assay.” for “fg/cell.”

MMP2 = assay: Gelatin zymography, MMP2 after PDT
Experimental: as §1, §2
Aliquots of conditioned medium were mixed with 1 ml of acetone and maintained at -20° C. for 16-20 hours. The aliquots were microcentrifuged at 14,000×g for 15 minutes, the supernatant was removed and the precipitated protein was dried in a vacuum concentrator (Savant, Farmingdale, N.Y.) to remove residual acetone. Conditioned medium samples were mixed with sample buffer (0.4 M Tris pH 6.8, 5% SDS, 20% glycerol, 0.003% bromophenol blue) and applied directly, without boiling or reduction, to 10% acrylamide gels containing 1% gelatin. […] The gels were stained for 1 hour at room temperature in 30% methanol/10% acetic acid containing 0.5% coomassie blue R-250 and destained in the same solution without dye. The gelatinolytic activity of the proteins was evidenced by clear bands against the blue background of the stained gelatin.

chondrocytes [3] = assay: Fluorescence of photosensitizers in chondrocytes (confocal microscopy)

## C=Cc1c(C)c2cc3nc(c(CC(=O)O)c4[nH]c(cc5nc(cc1[nH]2)C(C)=C5CC)c(C)c4C(=O)O)[C@@H](CCC(=O)O)[C@@H]3C [Ce6, Chlorin e6]
Chondrocytes [1]
  decrease in viability: approximately 50%
Chondrocytes [2]; 72 hours after drug and/or light exposure, light dose not given, read-out: IC50, inhibition of chondrocyte proliferation ([^3 H]-thymidine incorporation)
  IC50: 4.4 µg/mL (≈ 7.37 µM)
Chondrocytes [2]; concentration inhibiting [^3 H]-thymidine incorporation by 50%, read-out: IC50 (Table 2)
  IC50: 4.4 µg/mL (≈ 7.37 µM)
Articular chondrocytes; at IC50
  Photons Absorbed at IC50: 1.44 × 10^8 photons/cell
Articular chondrocytes; at the IC50 concentrations, 3 hour incubation
  relative uptake (in words): markedly less than for CASP and PF
Articular chondrocytes; uptake at the IC50, 3 hours incubation in the dark
  IC50 Uptake: 2.32 fg/cell
MMP2; at PDT parameter levels non-toxic to chondrocytes
  MMP2 production (in words): reduced at PDT parameter levels non-toxic to chondrocytes
MMP2; at high drug doses
  MMP production (in words): correspondingly greater decreases in MMP production
MMP2; at the IC50 dose
  reduction of MMP2 production: > 95%
MMP2; zymography studies
  total protein concentration (in words): did not vary with MMP values
Chondrocytes [3]
  cellular fluorescence intensity (in words): elevated levels of cytoplasmic fluorescence comparable in intensity and distribution to BPD-MA
